Measured values from patent US9290511B2, “Thieno-pyrimidines, useful as potassium channel inhibitors” (XENTION LIMITED, priority 2011, dated 2016).

molecular target: T1, Kir3.1/3.4 (Rattus norvegicus, UniProt P48548+P63251); test: Kir3.1/3.4 Electrophysiology Method (manual whole-cell patch clamp); format: cell-based; details: Electrophysiology Method (TABLE 1)
T1 construct: expressed in transfected cells
T1 sequence (P63251 1-501): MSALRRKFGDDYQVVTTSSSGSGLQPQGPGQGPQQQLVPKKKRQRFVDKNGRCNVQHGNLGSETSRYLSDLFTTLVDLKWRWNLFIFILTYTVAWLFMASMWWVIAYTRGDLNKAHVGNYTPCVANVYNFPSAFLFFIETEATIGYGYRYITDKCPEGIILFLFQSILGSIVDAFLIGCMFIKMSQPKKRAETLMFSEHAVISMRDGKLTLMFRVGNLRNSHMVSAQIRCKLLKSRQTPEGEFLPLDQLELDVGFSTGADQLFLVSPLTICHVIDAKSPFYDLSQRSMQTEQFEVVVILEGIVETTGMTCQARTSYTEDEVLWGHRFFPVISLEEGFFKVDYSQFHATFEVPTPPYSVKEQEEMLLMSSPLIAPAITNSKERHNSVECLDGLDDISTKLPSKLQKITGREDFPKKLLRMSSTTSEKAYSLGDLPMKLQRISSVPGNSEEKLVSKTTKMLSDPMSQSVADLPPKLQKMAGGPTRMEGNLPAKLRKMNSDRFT
T1 sequence (P48548 1-419): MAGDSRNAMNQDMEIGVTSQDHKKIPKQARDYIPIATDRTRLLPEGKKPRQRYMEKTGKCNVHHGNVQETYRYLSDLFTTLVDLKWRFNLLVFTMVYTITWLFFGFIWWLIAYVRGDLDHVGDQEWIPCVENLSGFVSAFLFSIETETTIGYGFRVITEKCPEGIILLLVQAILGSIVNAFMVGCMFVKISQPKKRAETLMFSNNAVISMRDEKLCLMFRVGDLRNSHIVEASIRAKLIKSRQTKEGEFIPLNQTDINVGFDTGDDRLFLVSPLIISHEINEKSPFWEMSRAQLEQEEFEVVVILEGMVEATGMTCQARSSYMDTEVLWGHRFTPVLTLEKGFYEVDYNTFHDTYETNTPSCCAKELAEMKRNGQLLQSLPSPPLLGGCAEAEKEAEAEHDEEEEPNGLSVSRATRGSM
Method: Compound activity against the recombinant G-protein activated inward rectifier current encoded by the heterotetramer Kir3.1/3.4 was assessed using manual whole-cell patch technique. The heterotetramer forms the pore-forming channel that conducts the acetylcholine/adenosine-activated potassium current in the heart.
For whole-cell patch-clamp studies, cells (Human Embryonic Kidney 293 stably transfected with rat Kir3.1/3.4) were seeded onto glass coverslips before recordings were made. Cells were seeded in sterile 30 mm Petri dishes at a density to enable isolated cells to be selected for patch clamp experiments. The dishes were stored in a humidified, gassed (5% CO2) incubator at 37° C. until use.
Whole-cell patch-clamp recordings of membrane currents were made following gigaohm seal formation between the patch electrode and the cell using HEKA EPC-9/10 amplifiers controlled by Pulse Software (Ver8.5x/8.6×/8.7×, HEKA, Germany). Coverslips seeded with cells were placed in a recording chamber mounted on the stage of an inverted microscope. During the experiment, the cell of interest was continuously superfused with bather solution delivered via a cannula placed in close proximity to the cell to enable control of the extracellular solution environment. Only those cells with a current <−500 pA (current at −140 mV) were used for experiments. During experiments, series resistance was compensated by a minimum of 70%.
Electrophysiology voltage-step protocols and analysis of data were performed as follows. Data was sampled at 5 kHz, and filtered with a −3 dB bandwidth of 2.5 kHz. Cells were held at a voltage of −60 mV. Currents were evoked by a depolarising voltage step to +60 mV (100 ms) before a ramp-repolarisation (0.4 V·s^−1) to −140 mV (100 ms) before returning to −60 mV. The command waveform was repeatedly applied every 10 s throughout the experiment. Mean currents during 1-99% of the time at −140 mV were analysed using Pulsefit software (v8.x, HEKA, Germany). The voltage protocol was repeatedly applied to achieve a stable current baseline in bather before the test substance was superfused via the cannula in close proximity to the cell under investigation. The test substance was allowed to equilibrate during which time voltage protocol was repeatedly applied and recorded. On reaching steady-state inhibition, the cell was superfused with an identical bather solution containing zero external potassium chloride (replaced by equimolar NaCl). The identical current measurement was made in the absence of potassium to assess the passive leak at −140 mV. The leak current was subtracted from the control and steady-state drug current values. The percentage inhibition of the leak-subtracted current in the presence of test substance was calculated relative to the control leak-subtracted pre-drug value. Internal patch-pipette solution contained in mM: 110 KCl, 20 NaCl, 0.9 GTPγS, 5 Mg-ATP, 5 EGTA, 10 HEPES, pH7.2 corrected with KOH. The external superfusate composition in mM was: 150 (or 160) NaCl, 10 (or 0) KCl, 3 CaCl2, 1 MgCl, 10 HEPES, pH 7.4 corrected with NaOH.

Compared with `CCN(CC)C(=O)C1CCCN(c2nc(N3CCC(CN(C)C4CCN(C)C4)CC3)c3c(-c4ccccc4)csc3n2)C1` (centres unmarked) [Example 228], `c1ccc(COC2CCN(c3ncnc4scc(-c5ccccc5)c34)C2)cc1` (centres unmarked) [Example 178, d]pyrimidine] is higher in IC50: under 500 nM for the first, 500 to 3000 nM for the second.

First: c1ccc(-c2csc3ncnc(N4CCC(COCCN5CCCC5)CC4)c23)cc1 [Example 5, 5-phenyl-4-[4-(2-pyrrolidin-1-ylethoxymethyl)-1-piperidyl]thieno[2,3-d]pyrimidine]
Second: COCC1CCN(c2nc(NCCC3CCCN3C)nc3scc(C4CCCCC4)c23)CC1 (centres unmarked) [Example 177]
The IC50 of the first is lower: under 500 nM for the first, 500 to 3000 nM for the second.

`OCCN(CCO)CC1CCN(c2ncnc3scc(C4CCCCC4)c23)CC1` [Example 201] and `CNC(=O)C1CCCN(c2nc(N3CCC(CN(C)C4CCN(C)C4)CC3)c3c(-c4ccccc4)csc3n2)C1` (centres unmarked) [Example 227] cannot be ordered by IC50: under 500 nM for the first, under 500 nM for the second.

`COCC1CCN(c2nc(CC(=O)NCCN3CCCC3)nc3scc(-c4ccccc4)c23)CC1` [Example 182] and “N-(2-pyrrolidin-1-ylethyl)thieno[2,3-d]pyrimidin-2-amine [Example 127]” cannot be ordered by IC50: under 500 nM for the first, under 500 nM for the second.

Compared with `CC(=O)N1CCCC1CCN(C)CC1CCN(c2ncnc3scc(-c4ccccc4)c23)CC1` (centres unmarked) [Example 89, 1-[2-[2-[methyl-[[1-(5-phenylthieno[2,3-d]pyrimidin-4-yl)-4-piperidyl]methyl]amino]ethyl]pyrrolidin-1-yl]ethanone], `COc1ncccc1-c1csc2ncnc(N3C4CCC3CC(N(C)C3CCC3)C4)c12` (centres unmarked) [Example 351, N-cyclobutyl-8-[5-(2-methoxy-3-pyridyl)thieno[2,3-d]pyrimidin-4-yl]-N-methyl-8-azabicyclo[3.2.1]octan-3-amine] is lower in IC50: 500 to 3000 nM for the first, under 500 nM for the second.

`c1ccc(-c2csc3ncnc(N4CCC(CNCCC5CC5)CC4)c23)cc1` [Example 103] and `FC(F)(F)Oc1cccc(-c2csc3ncnc(N4CCC(COCCN5CCCC5)CC4)c23)c1` [Example 313] cannot be ordered by IC50: under 500 nM for the first, under 500 nM for the second.

`CN(C)C1CCCN(CC2CCCN(c3ncnc4scc(-c5ccccc5)c34)C2)C1` (centres unmarked) [Example 208] and `CN1CCC(NC2CCN(c3ncnc4scc(-c5ccccc5)c34)CC2)CC1` [Example 223] cannot be ordered by IC50: under 500 nM for the first, under 500 nM for the second.

Compared with `c1ccc(-c2coc3ncnc(N4CCC(COCCN5CCCC5)CC4)c23)cc1` [Example 308, 5-phenyl-4-[4-(2-pyrrolidin-1-ylethoxymethyl)-1-piperidyl]furo[2,3-d]pyrimidine], `COCCNCC1CCN(c2nc(NCCN3CCCC3)nc3scc(-c4ccccc4)c23)CC1` [Example 109] is higher in IC50: under 500 nM for the first, 500 to 3000 nM for the second. The first is the more potent here.

First: CNC(=O)c1sc2ncnc(N3CCC(COCCN4CCCC4)CC3)c2c1-c1ccccc1 [Example 141]
Second: CC(=O)Nc1sc2nc(N3CCC(COCCN4CCCC4)CC3)ncc2c1-c1ccccc1 [Example 155, N-[5-phenyl-2-[4-(2-pyrrolidin-1-ylethoxymethyl)-1-piperidyl]thieno[2,3-d]pyrimidin-6-yl]acetamide]
The IC50 of the first is lower: under 500 nM for the first, 500 to 3000 nM for the second. The first is the more potent here.

First: OCCNc1nc(N2CCC(CCO)CC2)c2c(-c3ccc(F)cc3)csc2n1 [Example 171]
Second: CC(C)c1csc2ncnc(N3CC4CC3CC4OCCN3CCCC3)c12 (centres unmarked) [Example 288]
The IC50 of the first is higher: 500 to 3000 nM for the first, under 500 nM for the second. The second is the more potent here.

First: COCCN1CCN(c2nc(N3CCC(CN(C)C4CCN(C)C4)CC3)c3c(-c4ccccc4)csc3n2)CC1 (centres unmarked) [Example 122]
Second: c1ccc(-c2csc3ncnc(N4CC(COCCN5CCCC5)C4)c23)cc1 [Example 273]
The IC50 of the first is lower: under 500 nM for the first, 500 to 3000 nM for the second. The first is the more potent here.

First: c1ccc(-c2csc3nc(C4CC4)nc(N4C5CCC4CC(NC4CCC4)C5)c23)cc1 (centres unmarked) [Example 321, N-cyclobutyl-8-(2-cyclopropyl-5-phenyl-thieno[2,3-d]pyrimidin-4-yl)-8-azabicyclo[3.2.1]octan-3-amine]
Second: NC(=O)C1CCN(c2nc(N3CCOCC3)c3c(-c4ccccc4)csc3n2)C1 (centres unmarked) [Example 306]
The IC50 of the first is lower: under 500 nM for the first, 3000 to 10000 nM for the second.

Compared with `CNC(=O)C1(NCC2CCN(c3ncnc4scc(-c5ccccc5)c34)CC2)CCC1` [Example 260], `OC1CCCN(CC2CCN(c3ncnc4scc(-c5ccccc5)c34)CC2)C1` (centres unmarked) [Example 55, 1-[[1-(5-phenylthieno[2,3-d]pyrimidin-4-yl)-4-piperidyl]methyl]piperidin-3-ol] is higher in IC50: under 500 nM for the first, 500 to 3000 nM for the second. The first is the more potent here.

First: NC(=O)C1CCN(c2nc(N3CCC(COCCN4CCOCC4)CC3)c3c(-c4ccccc4)csc3n2)C1 (centres unmarked) [Example 258]
Second: COCC1CCN(c2nc(CC(=O)N3CCCC3)nc3scc(-c4ccccc4)c23)CC1 [Example 183, 2-[4-[4-(methoxymethyl)-1-piperidyl]-5-phenyl-thieno[2,3-d]pyrimidin-2-yl]-1-pyrrolidin-1-yl-ethanone]
The IC50 of the first is lower: under 500 nM for the first, 500 to 3000 nM for the second.

`CN(CC(=O)N1CCCC1)CC1CCN(c2ncnc3scc(-c4ccccc4)c23)CC1` [Example 93, 2-[methyl-[[1-(5-phenylthieno[2,3-d]pyrimidin-4-yl)-4-piperidyl]methyl]amino]-1-pyrrolidin-1-yl-ethanone] and `Fc1ccc(-c2csc3ncnc(N4CCC(CNC5CCC5)CC4)c23)cc1` [Example 78, N-[[1-[5-(4-fluorophenyl)thieno[2,3-d]pyrimidin-4-yl]-4-piperidyl]methyl]cyclobutanamine] fall in the same range of IC50: 500 to 3000 nM for the first, 500 to 3000 nM for the second.

`CN1CCC(CCNCC2CCN(c3ncnc4scc(-c5ccccc5)c34)CC2)C1` (centres unmarked) [Example 104] and `CC(=O)N(C)C1CCN(CC2CCN(c3ncnc4scc(-c5ccccc5)c34)CC2)C1` (centres unmarked) [Example 248] cannot be ordered by IC50: under 500 nM for the first, under 500 nM for the second.

`CN1CCC(N(C)CC2CCN(c3nc(NCC4CC4)nc4scc(-c5ccccc5)c34)CC2)C1` (centres unmarked) [Example 119] and `Fc1ccc(-c2csc3ncnc(N4CCC(COCCN5CCOCC5)CC4)c23)cc1` [Example 21, 4-[2-[[1-[5-(4-fluorophenyl)thieno[2,3-d]pyrimidin-4-yl]-4-piperidyl]methoxy]ethyl]morpholine] cannot be ordered by IC50: under 500 nM for the first, under 500 nM for the second.

`CN1CCCC1CCNC(=O)C1CCN(c2ncnc3scc(-c4ccccc4)c23)CC1` (centres unmarked) [Example 166, N-[2-(1-methylpyrrolidin-2-yl)ethyl]-1-(5-phenylthieno[2,3-d]pyrimidin-4-yl)piperidine-4-carboxamide] and `c1cc(-c2csc3ncnc(N4CCC(COCCN5CCCC5)CC4)c23)ccn1` [Example 311] fall in the same range of IC50: 500 to 3000 nM for the first, 500 to 3000 nM for the second.

`CN(CCC1CCCN1C)CC1CCN(c2ncnc3scc(-c4ccccc4)c23)CC1` (centres unmarked) [Example 101] and `CN(C)CCCN(C)CC1CCN(c2ncnc3scc(-c4ccccc4)c23)CC1` [Example 72, N,N,N′-trimethyl-N′-[[1-(5-phenylthieno[2,3-d]pyrimidin-4-yl)-4-piperidyl]methyl]propane-1,3-diamine] cannot be ordered by IC50: under 500 nM for the first, under 500 nM for the second.

First: NC(=O)C1CCN(c2nc(N3CC4CC3CO4)c3c(-c4ccccc4)csc3n2)C1 (centres unmarked) [Example 309]
Second: c1sc2nc(N3CCC(COCCN4CCCC4)CC3)ncc2c1C1CCCCC1 [Example 283]
The IC50 of the first is higher: 3000 to 10000 nM for the first, under 500 nM for the second. The second is the more potent here.

In the case of `F[C@H]1CCN(CCOC2CC3CC2CN3c2ncnc3scc(-c4ccccc4)c23)C1` (some centres unmarked) [Example 291], the IC50 is reported as under 500 nM.
